Values of other authors in US9554998B1, “Composition of analgesic bioadhesive healing microspheres” (priority 2015, dated 2017).

What was measured:
[1] = applied for 30 minutes to the forearms of healthy volunteers
[2] = single patient

Row | Structure (SMILES) | local analgesic effect [1] | analgesic control ([2]; liquid sevoflurane directly on to the ulcer bed) | time the ulcer took to heal ([2]; liquid sevoflurane on the ulcer bed) [days]
1 | FC(F)(F)C(Cl)Br (centres unmarked) [halothane] | slight local analgesic effect |  | 
2 | FC(F)OC(Cl)C(F)(F)F (centres unmarked) [isoflurane] | slight local analgesic effect |  | 
3 | FCOC(C(F)(F)F)C(F)(F)F [sevoflurane, fluoromethyl 2.2.2-trifluoro-1-(trifluoromethyl)ethyl ether] | slight local analgesic effect | immediate, intense and long-lasting analgesia | 16
